From article PMC10687260, “1,3-Diphenylureido hydroxamate as a promising scaffold for generation of potent antimalarial histone deacetylase inhibitors” (Scientific Reports, 2023)

Legend:
[1] = Stability in mouse hepatic microsomes; assay type: in vitro ADME; conditions: for half-life at 1 µM: 1 mg/mL hepatic microsomes, 1 µM compound, read-out: Half-life t1/2 Mouse; for microsomal CLint at 1 µM: read-out: Intrinsic clearance Clint Mouse
From the text: DMPK evaluation. […].

CYP450 2D6 = biological target: T1, CYP450 2D6 (Homo sapiens, UniProt P10635); assay: CYP450 inhibition in human liver microsomes, 2D6; assay type: in vitro ADME; conditions: 10 µM
T1 construct: 10 μM compound was incubated with human liver microsomes and selective marker substrates; from tissue; host or cells: human liver microsomes
T1 sequence (P10635 whole entry): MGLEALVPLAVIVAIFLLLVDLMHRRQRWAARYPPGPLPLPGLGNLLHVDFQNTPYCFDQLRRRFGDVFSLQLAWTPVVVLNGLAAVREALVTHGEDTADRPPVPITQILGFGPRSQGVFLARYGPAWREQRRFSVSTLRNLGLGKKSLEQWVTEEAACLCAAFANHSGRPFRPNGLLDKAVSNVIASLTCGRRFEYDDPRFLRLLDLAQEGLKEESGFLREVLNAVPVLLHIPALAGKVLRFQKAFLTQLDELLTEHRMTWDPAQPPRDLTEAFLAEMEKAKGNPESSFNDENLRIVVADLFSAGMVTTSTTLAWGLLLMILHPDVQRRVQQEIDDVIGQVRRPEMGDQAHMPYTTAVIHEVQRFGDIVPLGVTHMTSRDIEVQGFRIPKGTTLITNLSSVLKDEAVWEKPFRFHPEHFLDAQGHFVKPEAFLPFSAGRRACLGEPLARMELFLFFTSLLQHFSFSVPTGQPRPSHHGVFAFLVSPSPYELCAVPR

CYP1A2 = biological target: T2, CYP1A2 (Homo sapiens, UniProt P05177); assay: CYP450 inhibition in human liver microsomes, 1A2; assay type: in vitro ADME; conditions: 10 µM
T2 construct: 10 μM compound was incubated with human liver microsomes and selective marker substrates; from tissue; host or cells: human liver microsomes
T2 sequence (P05177 1-516): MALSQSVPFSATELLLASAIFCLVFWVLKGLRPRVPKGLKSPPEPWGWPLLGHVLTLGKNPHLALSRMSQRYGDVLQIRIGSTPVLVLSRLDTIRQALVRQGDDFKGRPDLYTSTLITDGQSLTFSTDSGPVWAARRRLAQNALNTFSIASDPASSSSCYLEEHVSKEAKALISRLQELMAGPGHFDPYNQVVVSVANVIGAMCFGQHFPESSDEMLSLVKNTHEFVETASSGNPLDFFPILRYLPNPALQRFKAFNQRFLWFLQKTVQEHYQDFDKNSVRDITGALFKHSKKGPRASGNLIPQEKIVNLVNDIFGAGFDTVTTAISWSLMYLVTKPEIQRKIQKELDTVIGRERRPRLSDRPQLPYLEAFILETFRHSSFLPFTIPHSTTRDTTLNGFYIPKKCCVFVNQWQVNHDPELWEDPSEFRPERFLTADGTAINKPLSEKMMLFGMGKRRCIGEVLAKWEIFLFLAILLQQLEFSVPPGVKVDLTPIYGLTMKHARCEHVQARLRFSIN

P. falciparum 3D7 = assay: Antiplasmodial SYBR Green I proliferation assay, P. falciparum 3D7; assay type: cell-based, Plasmodium falciparum; conditions: Plasmodium falciparum, 3D7, 96 h, 96 h; values in brackets 95% confidence intervals; read-out: IC50 Pf3D7
Procedure, shortened: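 SYBR Green I DNA-content proliferation assay on P. falciparum 3D7 and Dd2 in human O+ erythrocytes. Fluorescence after 1 h lysis with 0.02% SYBR Green I, scaled 0–100% against untreated parasites; curves by non-linear regression on means of three independent triplicate experiments.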

PfHDAC1 = biological target: T3, PfHDAC1 (Plasmodium falciparum, UniProt Q7K6A1); assay: In vitro PfHDAC1 enzymatic assay; assay type: biochemical; conditions: for inhibition at 1 µM / inhibition at 10 µM: recombinant PfHDAC1
T3 construct: purchased BPS Bioscience (San Diego, CA)
T3 sequence (Q7K6A1 1-449): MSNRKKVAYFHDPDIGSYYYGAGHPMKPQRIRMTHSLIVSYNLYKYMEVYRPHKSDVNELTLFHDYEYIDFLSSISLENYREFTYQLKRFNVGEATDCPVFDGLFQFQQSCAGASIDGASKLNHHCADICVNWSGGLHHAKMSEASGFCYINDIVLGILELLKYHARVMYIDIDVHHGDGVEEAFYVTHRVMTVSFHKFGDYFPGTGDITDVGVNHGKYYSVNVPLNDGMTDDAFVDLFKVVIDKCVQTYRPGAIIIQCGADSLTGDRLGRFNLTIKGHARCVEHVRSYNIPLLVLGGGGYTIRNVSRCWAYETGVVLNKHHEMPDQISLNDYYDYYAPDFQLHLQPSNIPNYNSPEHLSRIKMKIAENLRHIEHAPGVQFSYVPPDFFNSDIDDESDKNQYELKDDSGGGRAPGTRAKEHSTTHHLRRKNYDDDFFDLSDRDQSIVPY
Experimental: In vitro PfHDAC1 enzymatic assay. PfHDAC inhibition assays were performed by BPS Bioscience (San Diego, CA). […] Then, each DMSO solution was directly diluted 10 × fold into the HDAC assay buffer for an intermediate dilution of 10% DMSO in HDAC assay buffer. Then, 5 µL of the intermediate dilution was added to a 50 µL reaction so that the final concentration of DMSO is 1% in all the reactions. […] Fluorescence intensity was measured at an excitation of 360 nm and an emission of 460 nm using a Tecan Infinite M1000 microplate reader. […] The fluorescent intensity data were analyzed using GraphPad Prism (v9.5.2). In the absence of the compound, the fluorescent intensity (Ft) in each data set was defined as 100% activity. In the absence of HDAC, the fluorescent intensity (Fb) in each data set was defined as 0% activity. The percent activity in the presence of each compound was calculated according to the following equation: % activity = (F-Fb)/(Ft-Fb), where “F” is the fluorescent intensity in the presence of the compound.

| SMILES | melting point | half-life at 1 µM [1] [min] | microsomal CLint at 1 µM [1] [µL/min/mg] | CYP450% inhibition @ 10 µM 2D6 (CYP450 2D6) | CYP450% inhibition @ 10 µM 1A2 (CYP1A2) | IC50 (P. falciparum 3D7) [nM] | inhibition at 1 µM (PfHDAC1) [%] | inhibition at 10 µM (PfHDAC1) [%] | remaining activity at 1 µM (PfHDAC1; 1 µM, read-out: PfHDAC1 residual activity) [%] |
| --- | --- | --- | --- | --- | --- | --- | --- | --- | --- |
| O=C(Nc1ccc(C(=O)NO)cc1)Nc1ccc([N+](=O)[O-])cc1 [Compound 8d, N-hydroxy-4-(3-(4-nitrophenyl)ureido)benzamide] | 312 °C (dec.) | 13.8 | 50 | * (Inhibition < 10%) | * (Inhibition < 10%) | 550 | – | – | – |
| COc1ccc(NC(=O)Nc2ccc(CCC(=O)NO)cc2)cc1 [Compound 7c, N-hydroxy-3-(4-(3-(4-methoxyphenyl)ureido)phenyl)propanamide] | 202 to 204 °C | 4.1 | 169 | * (Inhibition < 10%) | 22% | 5820 | ~50 | 88 | – |
| O=C(Nc1ccc(Cl)cc1)Nc1ccc(C(=O)NO)cc1 [Compound 8b, 4-(3-(4-chlorophenyl)ureido)-N-hydroxybenzamide] | 357 °C (dec.) | 4 | 173 | * (Inhibition < 10%) | 42% | 1310 | – | – | – |
| COc1ccc(NC(=O)Nc2ccc(/C=C/C(=O)NO)cc2)cc1 [Compound 6c, (E)-N-hydroxi-3-(4-(3-(4-methoxyphenyl)ureido)phenyl)acrylamide] | 210 °C (dec.) | 4.4 | 158 | *^b (Inhibition < 10%) | 32% | 1030 | 69 | 82 | 26 |
| COc1ccc(NC(=O)Nc2ccc(C(=O)NO)cc2)cc1 [Compound 8c, N-hydroxy-4-(3–4(-methoxyphenyl)ureido)benzamide] | – | 2.5 | 281 | * (Inhibition < 10%) | * (Inhibition < 10%) | 740 | ~50 | – | – |
| O=C(Nc1ccccc1)Nc1ccc(C(=O)NO)cc1 [Compound 8a, N-hydroxy-4-(3-phenylureido)bezamide] | 304 °C (dec.) | 10.1 | 69 | * (Inhibition < 10%) | 48% | 560 | – | – | – |
